Results taken from ChEMBL document CHEMBL5537198, “Discovery and Characterization of a Bicyclic Peptide (Bicycle) Binder to Thymic Stromal Lymphopoietin” (J Med Chem, 2024).

Assays:
in vitro [1] = conditions: Wistar Han, rat, lung S9 fraction
in vitro [2] = conditions: rat, plasma
in vivo [3] = conditions: Wistar Han, rat, urine, iv; at 0.6 to 2 µmol/kg
in vivo [4] = conditions: Wistar Han, rat, lung
in vivo [5] = conditions: Wistar Han, rat, iv
in vivo [6] = conditions: Wistar Han, rat, iv; remark: listed apart in the source
in vivo [7] = conditions: Wistar Han, rat, at 0.6 to 2 µmol/kg
in vivo [8] = conditions: Wistar Han, rat, iv; remark: listed apart in the source
in vitro [9] = conditions: rat, plasma; remark: listed apart in the source
in vitro [10] = conditions: human, lung S9 fraction

SMILES	half-life at 1 h, 10 µM (in vitro [1]) [h]	remaining at 18 h (in vitro [2]) [%]	dose excreted (in vivo [3]) [%]	MRT (in vivo [4]) [h]	Vd (in vivo [5]) [L/kg]	half-life (in vivo [6]) [h]	bioavailability (in vivo [7]) [%]	clearance (in vivo [8]) [mL/min/kg]	remaining at 2 h (in vitro [9]) [%]	half-life (in vitro [10]) [min]
CC(=O)N[C@H]1CSCCC(=O)N2CN3CN(C2)C(=O)CCSC[C@H](NC(=O)[C@H](CC(=O)O)NC(=O)[C@H](CCC(=O)O)NC(=O)[C@H](CC(C)C)NC(=O)[C@H](Cc2c[nH]c4ccccc24)NC(=O)[C@H](CCC(N)=O)NC1=O)C(=O)N[C@@H](Cc1c[nH]c2ccccc12)C(=O)N[C@@H](CCCNC(=N)N)C(=O)NCC(=O)N[C@@H](Cc1ccc(F)cc1)C(=O)N[C@H](C(N)=O)CSCCC3=O	0.583	> 50	–	–	–	–	–	–	–	–
CC(=O)N[C@H]1CSCCC(=O)N2CN3CN(C2)C(=O)CCSC[C@H](NC(=O)[C@H](CC(=O)O)NC(=O)[C@H](CCC(N)=O)NC(=O)[C@H](CC(C)(C)C)NC(=O)[C@H](Cc2cn(C)c4ccccc24)NC(=O)[C@H](C)N(C)C1=O)C(=O)N[C@@H](Cc1cn(C)c2ccccc12)C(=O)N[C@@H](CCCNC(=N)N(C)C)C(=O)NCC(=O)N[C@@H](Cc1ccc(F)cc1)C(=O)N[C@H](C(N)=O)CSCCC3=O	2.38	> 50	–	–	–	–	–	–	–	–
CC(=O)N[C@H]1CSCCC(=O)N2CN3CN(C2)C(=O)CCSC[C@H](NC(=O)[C@H](CC(=O)O)NC(=O)[C@H](CCC(N)=O)NC(=O)[C@H](CC(C)(C)C)NC(=O)[C@H](Cc2cccc4ccccc24)NC(=O)[C@H](C)N(C)C1=O)C(=O)N[C@@H](Cc1cn(C)c2ccccc12)C(=O)N[C@@H](CCCNC(=N)N(C)C)C(=O)NCC(=O)N[C@@H](Cc1ccc(F)cc1)C(=O)N[C@H](C(=O)N[C@@H](C)C(N)=O)CSCCC3=O	–	> 50	0.9	2.4	0.41	0.75	23	6.4	–	–
CC(=O)N[C@H]1CSCCC(=O)N2CN3CN(C2)C(=O)CCSC[C@H](NC(=O)[C@@H](CC(=O)O)NC(=O)[C@H](CCC(=O)O)NC(=O)[C@H](CC(C)C)NC(=O)[C@H](Cc2c[nH]c4ccccc24)NC(=O)[C@@H](CCC(N)=O)NC1=O)C(=O)N[C@@H](Cc1c[nH]c2ccccc12)C(=O)N[C@@H](CCCNC(=N)N)C(=O)NCC(=O)N[C@@H](Cc1ccc(F)cc1)C(=O)N[C@H](C(=O)O)CSCCC3=O	1.12	> 50	–	1	0.13	0.0333	2.3	45	–	–
CC(=O)N[C@H]1CSCCC(=O)N2CN3CN(C2)C(=O)CCSC[C@H](NC(=O)[C@H](CC(=O)O)NC(=O)[C@H](CCC(=O)O)NC(=O)[C@H](CC(C)C)NC(=O)[C@H](Cc2cccc4ccccc24)NC(=O)[C@H](CCC(N)=O)NC1=O)C(=O)N[C@@H](Cc1c[nH]c2ccccc12)C(=O)N[C@@H](CCCNC(=N)N(C)C)C(=O)NCC(=O)N[C@@H](Cc1ccc(F)cc1)C(=O)N[C@H](C(N)=O)CSCCC3=O	1.38	> 50	–	–	–	–	–	–	–	–
CC(=O)N[C@H]1CSCCC(=O)N2CN3CN(C2)C(=O)CCSC[C@H](NC(=O)[C@H](CC(=O)O)NC(=O)[C@H](CCC(=O)O)NC(=O)[C@H](CC(C)C)NC(=O)[C@H](Cc2cccc4ccccc24)NC(=O)[C@H](CCC(N)=O)NC1=O)C(=O)N[C@@H](Cc1c[nH]c2ccccc12)C(=O)N[C@@H](CCCNC(=N)N(C)C)C(=O)NCC(=O)N[C@@H](Cc1ccc(F)cc1)C(=O)N[C@H](C(=O)N[C@@H](C)C(N)=O)CSCCC3=O	–	> 50	0.3	2.2	0.23	0.117	8.6	23	–	–
CC(=O)N[C@H]1CSCCC(=O)N2CN3CN(C2)C(=O)CCSC[C@@H](NC(=O)[C@H](CC(N)=O)NC(=O)[C@H](CCC(=O)O)NC(=O)[C@H](CC(C)C)NC(=O)[C@H](Cc2c[nH]c4ccccc24)NC(=O)[C@H](Cc2c[nH]cn2)NC1=O)C(=O)N[C@@H](Cc1c[nH]c2ccccc12)C(=O)N[C@@H](CCCNC(=N)N)C(=O)NCC(=O)N[C@@H](Cc1ccccc1)C(=O)N[C@H](C(N)=O)CSCCC3=O	< 0.0833	–	–	–	–	–	–	–	90	< 5
CC(=O)N[C@H]1CSCCC(=O)N2CN3CN(C2)C(=O)CCSC[C@@H]2NC(=O)[C@H](CC(=O)O)NC(=O)[C@H](CCC(=O)O)NC(=O)[C@H](CC(C)C)NC(=O)[C@H](CC/C=C/CC[C@H](NC(=O)[C@H](Cc4c[nH]c5ccccc45)NC2=O)C(=O)NCC(=O)N[C@@H](Cc2ccc(F)cc2)C(=O)N[C@H](C(N)=O)CSCCC3=O)NC(=O)[C@H](CCC(N)=O)NC1=O	0.8	> 50	0.1	0.5	0.21	0.05	5.9	46	–	–
CC(=O)N[C@H]1CSCCC(=O)N2CN3CN(C2)C(=O)CCSC[C@@H]2NC(=O)[C@H](CC(=O)O)NC(=O)[C@H](CCC(=O)O)NC(=O)[C@H](CC(C)C)NC(=O)[C@H](CCCCCC[C@H](NC(=O)[C@H](Cc4c[nH]c5ccccc45)NC2=O)C(=O)NCC(=O)N[C@@H](Cc2ccc(F)cc2)C(=O)N[C@H](C(N)=O)CSCCC3=O)NC(=O)[C@H](CCC(N)=O)NC1=O	0.567	> 50	–	–	–	–	–	–	–	–
CC(=O)N[C@H]1CSCCC(=O)N2CN3CN(C2)C(=O)CCSC[C@H](NC(=O)[C@H](CC(=O)O)NC(=O)[C@H](CCC(N)=O)NC(=O)[C@H](CC(C)(C)C)NC(=O)[C@H](Cc2cn(C)c4ccccc24)NC(=O)[C@H](CCC(N)=O)NC1=O)C(=O)N[C@@H](Cc1cn(C)c2ccccc12)C(=O)N[C@@H](CCCNC(=N)N(C)C)C(=O)NCC(=O)N[C@@H](Cc1ccc(F)c(Cl)c1)C(=O)N[C@H](C(N)=O)CSCCC3=O	1.53	> 50	0.8	1.8	0.32	0.583	22.5	6.4	–	–
CC(=O)N[C@H]1CSCCC(=O)N2CN3CN(C2)C(=O)CCSC[C@H](NC(=O)[C@H](CC(=O)O)NC(=O)[C@H](CCC(=O)O)NC(=O)[C@H](CC(C)(C)C)NC(=O)C(Cc2cn(C)c4ccccc24)NC(=O)[C@H](CCC(N)=O)NC1=O)C(=O)N[C@@H](Cc1cn(C)c2ccccc12)C(=O)N[C@@H](CCCNC(=N)N(C)C)C(=O)NCC(=O)N[C@@H](Cc1ccc(F)cc1)C(=O)N[C@H](C(N)=O)CSCCC3=O (some centres undefined)	–	> 50	1	1.3	0.42	0.433	24.7	12	–	–
CC(=O)N[C@H]1CSCCC(=O)N2CN3CN(C2)C(=O)CCSC[C@H](NC(=O)[C@H](CC(N)=O)NC(=O)[C@H](CCC(=O)O)NC(=O)[C@H](CC(C)C)NC(=O)[C@H](Cc2c[nH]c4ccccc24)NC(=O)[C@H](Cc2c[nH]cn2)NC1=O)C(=O)N[C@@H](Cc1c[nH]c2ccccc12)C(=O)N[C@@H](CCCNC(=N)N)C(=O)NCC(=O)N[C@@H](Cc1ccccc1)C(=O)N[C@H](C(N)=O)CSCCC3=O	–	> 50	64	> 24	0.6	1.1	33.9	6.3	–	–
CC(=O)N[C@H]1CSCCC(=O)N2CN3CN(C2)C(=O)CCSC[C@H](NC(=O)[C@H](CC(=O)O)NC(=O)[C@H](CCC(=O)O)NC(=O)[C@H](CC(C)C)NC(=O)[C@H](Cc2c[nH]c4ccccc24)NC(=O)[C@H](CCC(N)=O)NC1=O)C(=O)N[C@@H](Cc1c[nH]c2ccccc12)C(=O)N[C@@H](CCCNC(=N)N)C(=O)NCC(=O)N[C@@H](Cc1ccc(F)cc1)C(=O)N[C@H](C(=O)N[C@@H](C)C(N)=O)CSCCC3=O	2.4	> 50	–	1.2	0.3	0.0833	3.4	42	–	–
